This data set is described as follows: Metabolite profiling and semi-quantitation (peak area-time AUC) of LW6 and its metabolites in mouse plasma after a single i.v. or oral dose of LW6. The data set is classed as in vivo, male ICR mice. Conditions: for Relative % of Parent AUC0→t (i.v.): AUC0→t relative to AUC0→t of parent after i.v. administration; for Relative % of Total Metabolite AUC0→t: relative to sum of AUC0→t of all detected metabolites; for Relative AUC of metabolite versus parent AUC (i.v.): versus AUC0→t of LW6 administered intravenously; for Relative % of Parent AUC0→t (p.o.): AUC0→t relative to AUC0→t of parent after i.v. administration (5 mg/kg); for Average AUC0→t (Peak Intensity, Cps) / Average AUC0→t (Peak inTensity, cps): mouse plasma, n = 3, 0-24 h, LC-MS/MS peak intensity-time curve; for Average AUC0→t (Peak Intensity, Cps): LW6 5 mg/kg i.v.; for Average AUC0→t (Peak inTensity, cps): LW6 5 mg/kg p.o.; for Detection of metabolite in mouse plasma: LW6 5 mg/kg i.v. or p.o., pMRM-IDA-EPI, S/N > 3. As to the method:
To determine the in vivo metabolism of LW6, male ICR mice were administered a single intravenous (i.v., 5 mg/kg) or oral dose (p.o., 5 mg/kg) of LW6. Serial blood samples (Section 4.2) were collected and metabolite identification was performed using a pMRM-IDA-EPI scan method in negative ion mode on a QTRAP.
Animal experiments were approved by the Institutional Animal Care and Use Committee of the Korea Research Institute of Bioscience and Biotechnology (Chungbuk, Korea; KRIBB-AEC-15005, 9 January 2015) and performed in compliance with the National Institutes of Health Guidelines for the care and use of laboratory animals and Korean national laws for ethical conduct in the care and use of animals and the rules of Good Laboratory Practice. Six specific pathogen-free (SPF) male ICR mice (8 weeks, 31.5–40.1 g) were purchased from Koatech Co. (Pyeongtaek, Kyonggi, Korea) and maintained in an SPF environment at 22 ± 2 °C with a 12 h light/dark cycle and relative humidity of 50 ± 10%. Food (Teklad Global rodent diet 2018S, ENVIGO, Indianapolis, IN, USA) and water were provided ad libitum, unless noted otherwise. Animals were acclimated to the testing facility for 1 week before being used in the study. The animal group for oral dosing was fasted overnight before the study and fed again 4 h after dosing. Mice were administered a single dose of the test substance intravenously via tail vein injection (n = 3, 5 mg/kg) or orally by disposable syringe with an oral zonde (n = 3, 5 mg/kg). Dosing solutions were prepared in dimethylacetamide/Cremophor EL/20% v/v (2-hydroxypropyl)-β-cyclodextrin in de-ionized water (1/1/3 v/v/v; i.v. or p.o. for LW6) and administered at a dose volume of 5 mL/kg for both i.v. and p.o. Peng et al. method was used for serial blood sampling in mice. Briefly, blood samples (~50 µL each) were collected via the saphenous vein of free alive mice at the time points including 0, 0.25, 0.5, 0.75, 1, 2, 4, 6, 8, and 24 h after oral administration or 0, 0.083, 0.167, 0.25, 0.5, 1, 2, 4, 6, 8, and 24 h after intravenous administration. These samples were collected into Microvette® capillary tubes at predetermined time points. The blood samples were centrifuged under refrigeration at 12,000× g for 3 min and then stored frozen at −20 °C until analysis.
Plasma samples were prepared for analysis by the protein precipitation method. A simple protein precipitation is to remove proteins in plasma samples with organic solvents. Briefly, 15 µL of each plasma sample was transferred to a PCR tube (Axygen, Union City, CA, USA). Four volumes of acetonitrile containing the analytical internal standard, 4-methylumbelliferone, were added, and the resulting mixture was vortexed for 10 min on a multi-tube vortexer (VWR International, Radnor, PA, USA). The samples were sonicated for 30 min at room temperature. The tubes were centrifuged at 12,000× g for 10 min, and the supernatant was analyzed for the test substance. Sample analysis was performed with a 3200 Q TRAP LC/MS/MS system (Applied Biosystems, Foster City, CA, USA) in negative MRM mode. The analytical methods are described in the following sections.
The LC-MS/MS system consisted of an Agilent 1100 series HPLC system (Agilent Technologies, Santa Clara, CA, USA) equipped with an API 3200 QTRAP hybrid triple quadrupole-linear ion trap mass spectrometer with a Turbo V^TM ion spray. All samples were analyzed on an Acquisition mode and data were processed using Analyst® software (version 1.4.2, Applied Biosystems, Foster City, CA, USA). The sample injection volume was 10 µL, and separation was performed using an Atlantis dC18 column (50 × 2.1 mm i.d., 3 µm, Waters, Milford, MA, USA) with a SecurityGuard^TM C18 guard column (2.0 × 4.0 mm i.d., Phenomenex, Torrance, CA, USA) maintained at room temperature. […]

The results in this text go back to paper PMC8037336, “Metabolite Profiling and Characterization of LW6, a Novel HIF-1α Inhibitor, as an Antitumor Drug Candidate in Mice” (Molecules, 2021).

“And” between values parts separate entries of the source, which are not always exact repeats. Identical values can stand only once.

On to `O=C(O)COc1ccc(C23CC4CC(CC(C4)C2)C3)cc1` [APA, 2-(4-((3r,5r,7r)-adamantan-1-yl)phenoxy)acetic acid], for which the “Average AUC0→t (Peak Intensity, Cps)” value is given as 19,697,150 cps and the “Average AUC0→t (Peak inTensity, cps)” value is reported as 17,688,080 cps. For the same compound, for the setting “after LW6 5 mg/kg i.v.”, the “Relative % of Parent AUC0→t (i.v.)” value is given as 1877.92%; the “Relative % of Total Metabolite AUC0→t” value was 92.1% and 92%; the “Relative AUC of metabolite versus parent AUC (i.v.)” value is “approximately 19 fold”. Besides, the “Relative % of Total Metabolite AUC0→t” value (after LW6 5 mg/kg i.v., listed as APA (M7)) worked out at 92.09%. For the same compound, for the setting “after LW6 5 mg/kg p.o.”, the “Relative % of Parent AUC0→t (p.o.)” value stood at 1686.37%; the “Relative % of Total Metabolite AUC0→t” value was 93.3% and 93%; the “Relative AUC of metabolite versus parent AUC (i.v.)” value is reported as ~17 fold. For the same compound, the “Relative % of Total Metabolite AUC0→t” value (after LW6 5 mg/kg p.o., listed as APA (M7)) is 93.32%.

Turning to `COC(=O)c1ccc(O)c(NC(=O)COc2ccc(C34CC5CC(CC(C5)C3)C4)cc2)c1` [LW6], the “Average AUC0→t (Peak Intensity, Cps)” value is 1,048,883 cps and the “Average AUC0→t (Peak inTensity, cps)” value is 28,735 cps. Under “after LW6 5 mg/kg i.v., 5 mg/kg”, the “Relative % of Parent AUC0→t (i.v.)” value turned out to be 100%. Also, the “Relative % of Parent AUC0→t (p.o.)” value (after LW6 5 mg/kg p.o., 5 mg/kg) was 2.7% and 2.74%.

As to `O=C(COc1ccc(C23CC4CC(CC(C4)C2)C3)cc1)Nc1cc(C(=O)O)ccc1O` [M9], the “Detection of metabolite in mouse plasma” value is given as “only detected in plasma samples obtained from intravenous dosing” and the “Average AUC0→t (Peak Intensity, Cps)” value was determined as 7672 cps. Besides, where the note is “after LW6 5 mg/kg i.v.”, the “Relative % of Parent AUC0→t (i.v.)” value came to 0.73% and the “Relative % of Total Metabolite AUC0→t” value is 0.04%.

Take `Oc1ccc(C23CC4CC(CC(C4)C2)C3)cc1` [M12]: the “Detection of metabolite in mouse plasma” value was “only detected in plasma samples obtained from intravenous dosing” and the “Average AUC0→t (Peak Intensity, Cps)” value is on record as 31,345 cps. Moreover, under “after LW6 5 mg/kg i.v.”, the “Relative % of Parent AUC0→t (i.v.)” value was found to be 2.99% and the “Relative % of Total Metabolite AUC0→t” value stood at 0.15%.
